Patent publication US12233161B1, “Lipids and lipid nanoparticle formulations” (LONGUIDE BIOPHARMA CORPORATION, priority 2024, dated 2025)

Tests used:
[1] = Potential characterization of nucleic acid lipid nanoparticle preparations; format: physicochemical
In short: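 Zeta potential was read on a Malvern ZEN3700 after diluting 20 μL lipid nanoparticle solution (about 0.04 mg/mL mRNA) into 780 μL ultrapure water. Alternatively, a 27.5 μL sample in 200 μL water was first sized by dynamic light scattering, then diluted with 600 μL more water for potential measurement.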

[2] = tested on: mice; experiment: In vivo delivery of FLuc-mRNA lipid nanoparticles in mice, in vivo imaging (IVIS)
In short: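 Mice (n=3) received about 75 μL FLuc-mRNA LNP per mouse intramuscularly (rectus femoris), intravenously (tail vein), intraperitoneally or subcutaneously (back). After injection, D-luciferin (200 μL, 15 mg/mL) was given i.p. 10-15 min before IVIS imaging.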

[3] = Particle size and PDI of nucleic acid lipid nanoparticle preparations by dynamic light scattering; format: physicochemical
In short: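 Size read by DLS after diluting the LNP preparation (approx. 0.04 mg/mL mRNA) in ultrapure water with gentle pipette mixing. The same sample, recovered and diluted further with water, was then used for zeta potential measurement.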

[4] = tested on: mice; experiment: In vivo delivery of FLuc-circ-RNA lipid nanoparticles in mice; conditions: Fluc-circ-RNA LNP; for % of organ targeting: IV
Procedure: Lipid nanoparticles loaded with nucleic acid drugs were prepared according to step 2, replacing FLuc-mRNA with FLuc-circ-RNA (Hongene Biotech Corporation, Shanghai). After formulation, the nanoparticles were administered via intramuscular injection (into the quadriceps femoris muscle of mice), intravenous injection (into the tail vein of mice), intraperitoneal injection, or subcutaneous injection (subcutaneously on the back). Approximately 75 μL was injected per mouse, with a total of 3 mice per group. In vivo imaging (PerkinElmer, IVIS Lumina III) was performed after a certain period of time. Ten to fifteen minutes before imaging, 200 μL of a 15 mg/mL D-Luciferin working solution was injected intraperitoneally, followed by imaging analysis using the in vivo imaging system.

[5] = DMG-PEG2000:DSPC:Chol:compound 1.00:10.00:33.00:56.00, N/P 48
[6] = Fluc-circ-RNA LNP, preparation given IV
[7] = DMG-PEG2000:DSPC:Chol:Lipid 1.40:11.15:38.95:48.50, N/P 30, IV, liver
[8] = DMG-PEG2000:DSPC:Chol:Lipid 1.40:11.15:38.95:48.50, N/P 30, IV, lung
[9] = DMG-PEG2000:DSPC:Chol:Lipid 1.40:11.15:38.95:48.50, N/P 30, IV, spleen
[10] = DMG-PEG2000:DSPC:Chol:Lipid 4.00:8.00:58.00:30.00, N/P 36, IV, liver
[11] = DMG-PEG2000:DSPC:Chol:Lipid 4.00:8.00:58.00:30.00, N/P 36, IV, lung
[12] = DMG-PEG2000:DSPC:Chol:Lipid 4.00:8.00:58.00:30.00, N/P 36, IV, spleen
[13] = DMG-PEG2000:DSPC:Chol:Lipid 1.40:11.15:38.95:48.50, N/P 30, mRNA LNP
[14] = DMG-PEG2000:DSPC:Chol:Lipid 4.00:8.00:58.00:30.00, N/P 36, mRNA LNP
[15] = Fluc-circ-RNA LNP, preparation given IM
[16] = N/P 30, formulation cells blank (line above: DMG-PEG2000:DSPC:Chol:compound 1.00:10.00:33.00:56.00)
[17] = IV, body, DMG-PEG2000:DSPC:Chol:compound 1.00:10.00:33.00:56.00, N/P 42, Fluc-mRNA
[18] = IV, liver, DMG-PEG2000:DSPC:Chol:compound 1.00:10.00:33.00:56.00, N/P 42
[19] = IV, liver, DMG-PEG2000:DSPC:Chol:compound 1.00:10.00:33.00:56.00, N/P 42, Fluc-mRNA
[20] = IV, lung, DMG-PEG2000:DSPC:Chol:compound 1.00:10.00:33.00:56.00, N/P 42
[21] = IV, lung, DMG-PEG2000:DSPC:Chol:compound 1.00:10.00:33.00:56.00, N/P 42, Fluc-mRNA
[22] = IV, spleen, DMG-PEG2000:DSPC:Chol:compound 1.00:10.00:33.00:56.00, N/P 42
[23] = IV, spleen, DMG-PEG2000:DSPC:Chol:compound 1.00:10.00:33.00:56.00, N/P 42, Fluc-mRNA
[24] = DMG-PEG2000:DSPC:Chol:compound 1.00:10.00:33.00:56.00, N/P 42
[25] = DMG-PEG2000:DSPC:Chol:compound 1.40:11.15:38.95:48.50, N/P 30
[26] = DMG-PEG2000:DSPC:Chol:compound 2.50:11.50:56.00:30.00, N/P 42

Compound: CCCCCCCCCCCCNC(=O)C(O)CN(CCCN(CCO)CCCN(CC(O)C(=O)NCCCCCCCCCCCC)CC(O)C(=O)NCCCCCCCCCCCC)CC(O)C(=O)NCCCCCCCCCCCC (stereo not shown) [Compound L0281]
- Zeta potential (mV) [1, 5]: 14.67 mV
- Zeta potential (mV) [1, 6]: 16.27 mV
- IVIS ([2]; DMG-PEG2000:DSPC:Chol:Lipid 1.40:11.15:38.95:48.50, N/P 30, IM, whole body scan): 1.38 × 10^6
- IVIS ([2]; DMG-PEG2000:DSPC:Chol:Lipid 1.40:11.15:38.95:48.50, N/P 30, IV, body (whole body scan)): 6.41 × 10^7
- % of organ targeting [2, 7]: 1.91%
- IVIS [2, 7]: 3.17 × 10^6
- % of organ targeting [2, 8]: 93.34%
- IVIS [2, 8]: 1.55 × 10^8
- % of organ targeting [2, 9]: 4.75%
- IVIS [2, 9]: 7.89 × 10^6
- IVIS ([2]; DMG-PEG2000:DSPC:Chol:Lipid 4.00:8.00:58.00:30.00, N/P 36, IV, body): 7.07 × 10^7
- % of organ targeting [2, 10]: 21.21%
- IVIS [2, 10]: 1.28 × 10^7
- % of organ targeting [2, 11]: 1.08%
- IVIS [2, 11]: 6.52 × 10^5
- % of organ targeting [2, 12]: 77.71%
- IVIS [2, 12]: 4.68 × 10^7
- IVIS ([2]; IV, body, DMG-PEG2000:DSPC:Chol:compound 1.00:10.00:33.00:56.00, N/P 48, Fluc-mRNA): 4.66E+08
- % of organ targeting ([2]; IV, liver, DMG-PEG2000:DSPC:Chol:compound 1.00:10.00:33.00:56.00, N/P 48): 0.73%
- IVIS ([2]; IV, liver, DMG-PEG2000:DSPC:Chol:compound 1.00:10.00:33.00:56.00, N/P 48, Fluc-mRNA): 7.58E+06
- % of organ targeting ([2]; IV, lung, DMG-PEG2000:DSPC:Chol:compound 1.00:10.00:33.00:56.00, N/P 48): 97.70%
- IVIS ([2]; IV, lung, DMG-PEG2000:DSPC:Chol:compound 1.00:10.00:33.00:56.00, N/P 48, Fluc-mRNA): 1.02E+09
- % of organ targeting ([2]; IV, spleen, DMG-PEG2000:DSPC:Chol:compound 1.00:10.00:33.00:56.00, N/P 48): 1.57%
- IVIS ([2]; IV, spleen, DMG-PEG2000:DSPC:Chol:compound 1.00:10.00:33.00:56.00, N/P 48, Fluc-mRNA): 1.64E+07
- in vivo delivery efficiency as compared to the benchmark compound SM102 ([2]; certain formulations, Table 2): superior in vivo delivery efficiency
- tissue-targeting specificity (lung vs spleen depending on molar percentage of compound) ([2]; certain formulations, Table 2): strong tissue-targeting specificity
- PDI [3, 13]: 0.13 ± 0.01
- Particle size [3, 13]: 118.73 ± 0.90 nm
- PDI [3, 14]: 0.11 ± 0.01
- Particle size [3, 14]: 104.43 ± 0.96 nm
- PDI [3, 5]: 0.14
- Particle size (nm) [3, 5]: 138.90 nm
- PDI [3, 6]: 0.19
- Particle size (nm) [3, 6]: 152.1 nm
- % of organ targeting ([4]; liver): 0.74%
- % of organ targeting ([4]; lung): 96.58%
- % of organ targeting ([4]; spleen): 2.68%

Compound: CCCCCCC(CCCCCC)C(=O)OCCCCCCOC(=O)C(O)CN(CCCN(C)CCCN(CC(O)C(=O)OCCCCCCOC(=O)C(CCCCCC)CCCCCC)CC(O)C(=O)OCCCCCCOC(=O)C(CCCCCC)CCCCCC)CC(O)C(=O)OCCCCCCOC(=O)C(CCCCCC)CCCCCC (stereo not shown) [Compound L0293]
- Zeta potential (mV) [1, 15]: 11.37 mV
- Zeta potential (mV) [1, 16]: 9.98 mV
- IVIS ([2]; IM, N/P 30, formulation cells blank (line above: DMG-PEG2000:DSPC:Chol:compound 1.00:10.00:33.00:56.00), Fluc-mRNA): 3.61E+07
- IVIS [2, 17]: 3.11E+08
- % of organ targeting [2, 18]: 18.15%
- IVIS [2, 19]: 5.63E+07
- % of organ targeting [2, 20]: 3.34%
- IVIS [2, 21]: 1.03E+07
- % of organ targeting [2, 22]: 78.51%
- IVIS [2, 23]: 2.43E+08
- PDI [3, 24]: 0.10
- Particle size (nm) [3, 24]: 108.93 nm
- PDI [3, 15]: 0.15
- Particle size (nm) [3, 15]: 106.57 nm
- PDI [3, 16]: 0.10
- Particle size (nm) [3, 16]: 89.30 nm
- IVIS ([4]; IM, organ not given): 1.02E+08

Compound: CCCCCCCCCCOC(=O)C(O)CN(CCCN(C)CCCN(CC(O)C(=O)OCCCCCCCCCC)CC(O)C(=O)OCCCCCCCCCC)CC(O)C(=O)OCCCCCCCCCC (stereo not shown) [Compound L0313]
- Zeta potential (mV) [1, 25]: 13.57 mV
- Zeta potential (mV) [1, 6]: 9.98 mV
- IVIS ([2]; IM, DMG-PEG2000:DSPC:Chol:compound 1.40:11.15:38.95:48.50, N/P 30, Fluc-mRNA): 7.43E+05
- IVIS [2, 17]: 5.88E+07
- IVIS ([2]; IV, body, DMG-PEG2000:DSPC:Chol:compound 2.50:11.50:56.00:30.00, N/P 42, Fluc-mRNA): 5.20E+07
- % of organ targeting [2, 18]: 2.04%
- IVIS [2, 19]: 3.78E+06
- % of organ targeting ([2]; IV, liver, DMG-PEG2000:DSPC:Chol:compound 2.50:11.50:56.00:30.00, N/P 42): 6.90%
- IVIS ([2]; IV, liver, DMG-PEG2000:DSPC:Chol:compound 2.50:11.50:56.00:30.00, N/P 42, Fluc-mRNA): 8.68E+06
- % of organ targeting [2, 20]: 62.84%
- IVIS [2, 21]: 1.17E+08
- % of organ targeting ([2]; IV, lung, DMG-PEG2000:DSPC:Chol:compound 2.50:11.50:56.00:30.00, N/P 42): 1.10%
- IVIS ([2]; IV, lung, DMG-PEG2000:DSPC:Chol:compound 2.50:11.50:56.00:30.00, N/P 42, Fluc-mRNA): 1.38E+06
- % of organ targeting [2, 22]: 35.12%
- IVIS [2, 23]: 6.52E+07
- % of organ targeting ([2]; IV, spleen, DMG-PEG2000:DSPC:Chol:compound 2.50:11.50:56.00:30.00, N/P 42): 92.00%
- IVIS ([2]; IV, spleen, DMG-PEG2000:DSPC:Chol:compound 2.50:11.50:56.00:30.00, N/P 42, Fluc-mRNA): 1.16E+08
- PDI [3, 24]: 0.17
- Particle size (nm) [3, 24]: 75.31 nm
- PDI [3, 25]: 0.18
- Particle size (nm) [3, 25]: 111.20 nm
- PDI [3, 26]: 0.17
- Particle size (nm) [3, 26]: 82.60 nm
- PDI [3, 6]: 0.2
- Particle size (nm) [3, 6]: 115.97 nm
- % of organ targeting ([4]; liver): 3.39%
- % of organ targeting ([4]; lung): 20.55%
- % of organ targeting ([4]; spleen): 76.06%
